From patent publication US6399764B1, “DNA molecule encoding for cellular uptake of mycobacterium tuberculosis and uses thereof” (priority 1997, dated 2002)
Entries after “also recorded” stand apart in the source; their conditions may differ.

Tested on: HeLa cells
Experiment: Inhibition of rMcep1-coated fluorescent latex microsphere uptake
Format: cell-based

## CN(C)c1cccc2c(S(=O)(=O)NCCCCCN)cccc12 [MDC, Monodansylcadaverine]
MDC 1-100 mm, 3 h preincubation at 37° C., FIG. 5F
  inhibition of association/uptake of rMcep1-coated fluorescent beads: partly inhibited the association
MDC 1-100 mm, 3 h preincubation at 37° C., FIG. 5F, listed as Monodansylcadaverine (MDC)
  inhibition of association/uptake of rMcep1-coated fluorescent beads: partly inhibited the bead uptake

## COC(=O)Nc1nc2ccc(C(=O)c3cccs3)cc2[nH]1 [Nocodazole]
Nocodazole up to 5 mg/ml, 1 hr preincubation at 4° C. then 5 hrs at 37° C., FIG. 5E
  inhibition of association/uptake of rMcep1-coated fluorescent beads: inhibited the association of the beads in a dose dependent fashion; also recorded: had a similar inhibitory effect at noncytotoxic concentrations

## C=C1[C@@H](C)[C@H]2[C@H](Cc3ccccc3)NC(=O)[C@]23[C@H](OC(C)=O)/C=C/[C@@](C)(O)C(=O)[C@@H](C)C/C=C/[C@H]3[C@@H]1O [Cytochalasin D]
Cytochalasin D 0.1-5 mg/ml, 1 h preincubation at 37° C., FIG. 5D
  inhibition of association/uptake of rMcep1-coated fluorescent beads: blocked the association of the protein-coated beads in a dose-dependent manner
Cytochalasin D 0.1-5 mg/ml, 1 h preincubation at 37° C., FIG. 5D, listed as cytochalasin D
  inhibition of association/uptake of rMcep1-coated fluorescent beads: blocked uptake of the fluorescent beads, but the inhibition was not complete
